pIC50: −log10 of the molar value.
Test system: LG0567-F671-PDC KRAS tumor spheroid viability
Assay: Anticancer human tumor LG0567-F671-PDC patient-derived lung adenocarcinoma cell line growth inhibition [KRAS2]
Conditions: spheroids with HUVEC and MSC; for pIC50: curve of first compound; for viability, T/C: stronger effect = lower value; active means viability on the fitted dose curve at most 10% of control; inactive means the rest
Source text: Multicellular complex tumor spheroid response to RAS pathway inhibitors in combination with a targeted agents in patient-derived cell lines with oncogenic KRAS variants from multiple cancer types
A high-throughput screen of multi-cell type tumor spheroids was designed to identify active combinations of targeted small molecules and KRAS pathway inhibitors. Complex spheroids include a stromal component modeled by human endothelial cells (HUVEC) and fibroblasts modeled by human mesenchymal stem cells (MSCs). The concentration ranges selected for each drug and investigational agent were based upon clinically achievable concentrations if the clinical Cmax of the agent was known.
Compounds. The drugs and investigational agents: BI-3406 (NSC825286), BAY-293 (NSC824723), batoprotafib (TNO155; NSC825523), sotorasib (AMG 510; NSC818433), MRTX1257 (NSC819558), elimusertib (BAY 1895344; NSC800525), molibresib (GSK525762; NSC774829), temuterkib (LY3214996; NSC803410), venetoclax (NSC766270), alisertib (NSC759677), olaparib (NSC753686), talazoparib (NSC767125), erdafitinib (NSC781556), ipatasertib (NSC767898), cabozantinib (NSC761068), nintedanib (NSC756659), abemaciclib (NSC768073), docetaxel (NSC628503), trametinib (NSC758246), and sapanisertib (NSC764658) were obtained from the National Cancer Institute (NCI) Developmental Therapeutics Program Chemical Repository. The FDA-approved anticancer drug set is available from the Developmental Therapeutics Program. […] The stock solutions were prepared in dimethyl sulfoxide (DMSO, Sigma-Aldrich, St. Louis, MO, cat. D2650) at 800-fold the tested concentration and stored at -70 degrees C prior to their use. All drugs and investigational agents were tested over a range starting from a high concentration at or near the clinical Cmax and decreasing in half-log increments. If the clinical Cmax for an agent had not been determined, the highest concentration tested was 10 microM.
Cell Culture. All cells were maintained in an incubator at 37 degrees C and 5% CO2 with 95% humidity. The PDC lines were cultured according to standard operating procedures established by the NCI PDMR (https://pdmr.cancer.gov/sops/default.htm). Briefly, all PDCs were thawed and cultured in Matrigel-coated flasks prepared with a working solution of 1X Ham's F-12 nutrient mix, without supplementation (Invitrogen, Waltham, MA, cat. 11765054), 100 U/mL penicillin-streptomycin (Invitrogen, cat. 15140122), and 2.5% Matrigel (Corning Inc., Corning, NY, cat. 354248) for the first three passages. All PDCs were cultured in complete DMEM/F-12 media containing advanced DMEM/F-12 (Invitrogen, cat. 12634028), 4.9% defined fetal bovine serum, heat inactivated (HyClone Laboratories Inc., Logan, UT, cat. SH30070.03HI), 389 ng/mL hydrocortisone (Sigma-Aldrich, cat. H4001), 9.7 ng/mL human EGF recombinant protein (Invitrogen, cat. PHG0313), 23.4 microg/mL adenine (Sigma-Aldrich, cat. A2786), 97.3 U/mL penicillin-streptomycin (Invitrogen, cat. 15140122), 1.9 mM L-glutamine (Invitrogen, cat. 25030081), and 9.7 microM Y-27632 dihydrochloride (Tocris Bioscience, Bristol, United Kingdom, cat. 1254). The PDCs were cultured in complete DMEM/F12 media without 9.7 microM Y-27632 dihydrochloride for at least two passages prior to the screen. The established cell line HOP-62 was cultured in RPMI 1640 medium, HEPES (Invitrogen, cat. 22400105) with 10% defined fetal bovine serum (HyClone Laboratories Inc., cat. SH30070.03) and 2 mM L-glutamine (Invitrogen, cat. 25030081). The pooled donor HUVEC were cultured in endothelial cell growth medium 2 (PromoCell, Heidelberg, Germany, cat. C-22011) and the hMSC were cultured in mesenchymal stem cell growth medium 2 (PromoCell, cat. C-28009). For all experiments, HUVEC and hMSC were used at passages </=5, while the malignant cell lines were used at passages </=15. […]

[1] = second compound 0.0316 µM, first compound 0.01 µM
[2] = second compound 0.0316 µM, first compound 0.0316 µM
[3] = second compound 0.0316 µM, first compound 0.1 µM
[4] = second compound 0.1 µM, first compound 0.01 µM
[5] = second compound 0.1 µM, first compound 0.0316 µM
[6] = second compound 0.1 µM, first compound 0.1 µM
[7] = second compound 0.316 µM, first compound 0.01 µM
[8] = second compound 0.316 µM, first compound 0.0316 µM
[9] = second compound 0.316 µM, first compound 0.1 µM
[10] = second compound 1 µM, first compound 0.01 µM
[11] = second compound 1 µM, first compound 0.0316 µM
[12] = second compound 1 µM, first compound 0.1 µM
[13] = second compound 3.16 µM, first compound 0.01 µM
[14] = second compound 3.16 µM, first compound 0.0316 µM
[15] = second compound 3.16 µM, first compound 0.1 µM
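Further: drug exposure lasted seven days after spheroids formed for three days.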

Cn1ncnc1[C@H]1c2n[nH]c(=O)c3cc(F)cc(c23)N[C@@H]1c1ccc(F)cc1 + C=CC(=O)N1CCN(c2nc(OCC3CCCN3C)nc3c2CCN(c2cccc4cccc(C)c24)C3)CC1CC#N
inactive: viability, T/C (second compound 0.0316 µM, first compound 0.000316 µM) 44.2% | viability, T/C (second compound 0.0316 µM, first compound 0.001 µM) 41.6% | viability, T/C (second compound 0.0316 µM, first compound 0.00316 µM) 36.3% | viability, T/C [1] 35.6% | viability, T/C [2] 32% | viability, T/C [3] 29.4% | viability, T/C (second compound 0.1 µM, first compound 0.000316 µM) 34% | viability, T/C (second compound 0.1 µM, first compound 0.001 µM) 28.7% | viability, T/C (second compound 0.1 µM, first compound 0.00316 µM) 37.9% | viability, T/C [4] 27.4% | viability, T/C [5] 27.6% | viability, T/C [6] 27.9% | viability, T/C (second compound 0.316 µM, first compound 0.000316 µM) 34% | viability, T/C (second compound 0.316 µM, first compound 0.001 µM) 35.5% | viability, T/C (second compound 0.316 µM, first compound 0.00316 µM) 25.3% | viability, T/C [7] 25.8% | viability, T/C [8] 29.6% | viability, T/C [9] 30.8% | viability, T/C (second compound 1 µM, first compound 0.000316 µM) 41.2% | viability, T/C (second compound 1 µM, first compound 0.001 µM) 32.9% | viability, T/C (second compound 1 µM, first compound 0.00316 µM) 35.3% | viability, T/C [10] 26.7% | viability, T/C [11] 26.1% | viability, T/C [12] 24.9% | viability, T/C (second compound 3.16 µM, first compound 0.000316 µM) 14.8% | viability, T/C (second compound 3.16 µM, first compound 0.001 µM) 16.5% | viability, T/C (second compound 3.16 µM, first compound 0.00316 µM) 15.4% | viability, T/C [13] 16.1% | viability, T/C [14] 10.8% | viability, T/C [15] 9.1%
> 9.50: pIC50 (second compound 0.0316 µM) | pIC50 (second compound 0.1 µM) | pIC50 (second compound 0.316 µM) | pIC50 (second compound 1 µM) | pIC50 (second compound 3.16 µM)

CC1COCCN1c1cc(-c2ccnn2C)c2ccnc(-c3ccn[nH]3)c2n1 (stereo not given) + C=CC(=O)N1CCN(c2nc(OCC3CCCN3C)nc3c2CCN(c2cccc4cccc(C)c24)C3)CC1CC#N
> 8.00: pIC50 (second compound 0.0316 µM) | pIC50 (second compound 0.1 µM) | pIC50 (second compound 0.316 µM) | pIC50 (second compound 1 µM) | pIC50 (second compound 3.16 µM)
active: viability, T/C (second compound 0.1 µM, first compound 3.16 µM) 10.4%
inactive: viability, T/C [1] 33.7% | viability, T/C [2] 23.5% | viability, T/C [3] 17.1% | viability, T/C (second compound 0.0316 µM, first compound 0.316 µM) 15.6% | viability, T/C (second compound 0.0316 µM, first compound 1 µM) 14.1% | viability, T/C (second compound 0.0316 µM, first compound 3.16 µM) 12.7% | viability, T/C [4] 26.9% | viability, T/C [5] 21.2% | viability, T/C [6] 17.4% | viability, T/C (second compound 0.1 µM, first compound 0.316 µM) 12.7% | viability, T/C (second compound 0.1 µM, first compound 1 µM) 10.8% | viability, T/C [7] 24.7% | viability, T/C [8] 19.4% | viability, T/C [9] 15.6% | viability, T/C (second compound 0.316 µM, first compound 0.316 µM) 11.3% | viability, T/C (second compound 0.316 µM, first compound 1 µM) 12.1% | viability, T/C (second compound 0.316 µM, first compound 3.16 µM) 10.7% | viability, T/C [10] 26.8% | viability, T/C [11] 21.4% | viability, T/C [12] 16.7% | viability, T/C (second compound 1 µM, first compound 0.316 µM) 13.9% | viability, T/C (second compound 1 µM, first compound 1 µM) 13.9% | viability, T/C (second compound 1 µM, first compound 3.16 µM) 13.7% | viability, T/C [13] 26.2% | viability, T/C [14] 22.6% | viability, T/C [15] 20.8% | viability, T/C (second compound 3.16 µM, first compound 0.316 µM) 17.3% | viability, T/C (second compound 3.16 µM, first compound 1 µM) 13.3% | viability, T/C (second compound 3.16 µM, first compound 3.16 µM) 12.2%

Source: PubChem BioAssay AID1963856 (Molecular Pharmacology Branch, DTP, NCI, 2024)
